In PubChem BioAssay (NCI):
Several values for one entry are separate records, joined by “and”; a condition that tells them apart may be missing. Equal entries are not always repeated.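 Growth conditions: 96-well plates. Treatment: test compound, 48 hours, 5 concentrations. Analysis: linear interpolation between bracketing concentrations; unreached endpoints set to highest concentration. GI50: concentration for 50% inhibition of growth. TGI: concentration producing complete growth inhibition.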

Key:
Test in all cases: NCI tumour cell line growth inhibition, 48 h
786-0 renal = test system: 786-0 renal
COLO 205 colon = test system: COLO 205 colon
HCC-2998 colon = test system: HCC-2998 colon
HCT-116 colon = test system: HCT-116 colon
MDA-MB-435 = test system: MDA-MB-435
NCI-H23 lung = test system: NCI-H23 lung
NCI-H522 lung = test system: NCI-H522 lung
PC-3 prostate = test system: PC-3 prostate
SF-268 CNS = test system: SF-268 CNS
SK-MEL-2 melanoma = test system: SK-MEL-2 melanoma

Compound	GI50 (786-0 renal)	TGI (786-0 renal)	GI50 (COLO 205 colon)	TGI (COLO 205 colon)	GI50 (HCC-2998 colon)	TGI (HCC-2998 colon) [µM]	GI50 (HCT-116 colon)	TGI (HCT-116 colon)	GI50 (MDA-MB-435)	TGI (MDA-MB-435) [µM]	GI50 (NCI-H23 lung)	TGI (NCI-H23 lung) [µM]	GI50 (NCI-H522 lung)	TGI (NCI-H522 lung)	GI50 (PC-3 prostate)	TGI (PC-3 prostate) [µM]	GI50 (SF-268 CNS)	TGI (SF-268 CNS) [µM]	GI50 (SK-MEL-2 melanoma)	TGI (SK-MEL-2 melanoma)
CCOC(=O)C#Cc1c(C(=O)OCC)nnn1Cc1ccc([N+](=O)[O-])cc1	3.29 µM	10.8 µM	1.97 µM	3.79 µM	18.3 µM	32.2	2.02 µM	4.3 µM	3.35 µM	12.4	8.2 µM	26.9	1.92 µM	3.8 µM	10.2 µM	22.4	7.49 µM	21.5	13 µM	26.3 µM
CSC(=S)OC1CC(n2cnc3c(NC(=O)c4ccccc4)ncnc32)OC1CO[Si](C)(C)C(C)(C)C (stereo not drawn)		> 56.2 µM		18.1 µM		> 31.6		> 100 µM		27.9		> 56.2		> 56.2 µM		> 46.4		> 56.2		53.4 µM
CCN(CC)C(=S)SCN1C(=O)c2ccccc2S1(=O)=O	31.4 µM	> 100 µM	33.2 µM	> 100 µM	40.8 µM	> 78	54.2 µM	> 100 µM	60.9 µM	> 100	45.5 µM	> 91.1	0.391 µM	> 45 µM	4.9 µM	> 100	34.2 µM	> 100	> 94.4 µM	> 100 µM
O=C1OC(=O)C2CCCC3CCCC1C32 (stereo not drawn)		> 100 µM		> 100 µM		> 100		> 100 µM		> 100		> 100		> 100 µM		> 100		> 100		> 100 µM
C/C(=N\NC(=S)SCc1ccccc1)c1ccccn1		10.2 µM		0.464 µM		23.8		5.96 µM		18.3		9.31		2.79 µM		15.2		11.4		11.6 µM
COc1cc2nccc(Oc3ccc(NC(=O)Nc4cc(C)on4)c(Cl)c3)c2cc1OC	3.43 µM and 4.11 µM	23.3 µM and > 10 µM	3.22 µM and 3.04 µM	32.7 µM and > 10 µM	9 µM and > 10 µM	> 100	2.29 µM and 2.91 µM	5.48 µM and > 10 µM	2.74 µM and 2.98 µM	> 59.6	2.97 µM and 3.07 µM	> 100	3.47 µM and 3.14 µM	32.9 µM and > 10 µM	4.74 µM and 5.91 µM	> 100	2.58 µM and 3.09 µM	> 55.3	3.56 µM and 3.33 µM	10.4 µM and > 10 µM
Cc1cc2c(C(N)=O)c(N)n(-c3c(C)ccc(O)c3C)c2nc1C	3.37 µM	> 100 µM	1.7 µM	11.7 µM	3.21 µM	11.7	2.52 µM	15.2 µM	1.04 µM	3.33	1.25 µM	4.16	1.48 µM	5.09 µM	32.7 µM	> 100	9.28 µM	52.9	3.59 µM	21.2 µM
C=C1C(=O)O[C@H]2[C@H]1CC/C(COC(=O)C(C)c1ccc(CC(C)C)cc1)=C\CC[C@@]1(C)O[C@@H]21 (stereo partly drawn)	0.395 µM	1.65 µM	1.91 µM	4.1 µM	1.95 µM	3.74	0.187 µM	0.376 µM	1.49 µM	2.92	1.77 µM	3.92	1.71 µM	3.4 µM	0.891 µM	2.17	1.72 µM	3.5	1.89 µM	3.72 µM
O=C(N/N=C/c1ccc(O)cc1O)c1cccc(Nc2ccnc(C(F)(F)F)c2)c1	1.14 µM	10.6 µM	0.554 µM	15 µM	0.778 µM	18.1	0.535 µM	20.5 µM	0.861 µM	20.8	3.8 µM	27.4	1.27 µM	22.6 µM	3.01 µM	34.2	0.811 µM	30.4	7.39 µM	27.1 µM
N#Cc1c(N)nc(N2CCOCC2)c(C#N)c1-c1ccccn1	> 100 µM	> 100 µM	> 100 µM	> 100 µM	> 82 µM	> 100	> 100 µM	> 100 µM	> 100 µM	> 100	> 100 µM	> 100	> 100 µM	> 100 µM	> 100 µM	> 100	> 100 µM	> 100	> 100 µM	> 100 µM
NS(=O)(=O)c1ccc(N(/C=C/C(=O)C(F)(F)F)Cc2ccc(Cl)cc2)cc1	13.2 µM	27 µM	37.3 µM	> 100 µM	18.1 µM	35.5	14.7 µM	28.1 µM	30.6 µM	96.5	21.8 µM	64.3	12.6 µM	38.4 µM	19.6 µM	59	74.3 µM	> 100	27.2 µM	62 µM
[N-]=[N+]=NCCCn1c2c(c3ccc([N+](=O)[O-])cc3c1=O)C(=O)c1cc(F)ccc1-2	0.334 µM	2.01 µM	9.26 µM	> 100 µM	14.5 µM	> 100	0.388 µM	3.3 µM	4.15 µM	> 86.4	2.69 µM	19	0.853 µM	12.2 µM	1.25 µM	43.2		4.32	9.24 µM	> 75.1 µM
Fc1cccc(-n2ccc(-c3ccccc3)nc2=S)c1	21.2 µM	44.1 µM		3.82 µM	18.1 µM	33.4	21.9 µM	61.3 µM	99.7 µM	> 100	15 µM	33.2	22.7 µM	64.5 µM	17.5 µM	39.4	32.3 µM	> 100	> 100 µM	> 100 µM
